Test results as given in US9498465B2, “Topical compositions in the form of a gel containing a particular solubilized retinoid” (GALDERMA RESEARCH & DEVELOPMENT, priority 2012, dated 2016).

Legend:
Type in all cases: physicochemical
[1] = Stability of compound A in its principal solvents and cosolvents, determined by HPLC
[2] = Tests introducing ST-cyclomethicone 5NF: recrystallization of compound A
Experimental: In order to obtain an acceptable feel for acne (non-greasy, non-tacky) while at the same time keeping good solubility of compound A in the formula, tests introducing ST-cyclomethicone 5 were carried out, in the knowledge that ST-cyclomethicone 5NF is a nonsolvent of compound A and that this addition may therefore cause recrystallization of compound A: […]

[3] = Maximum solubility in hydrophilic excipients, determined by HPLC
Experimental: In order to produce an aqueous-glycolic gel containing an amount of ethanol of less than 30%, in which compound A is solubilized, pre-formulation studies were carried out in order to reveal the excipients enabling good solubilization and also good stability of the active agent. • (1) List of the hydrophilic excipients or mixture of hydrophilic excipients in which maximum solubility was determined by HPLC: […]

Stability results ([1]; 0.001% in Hexylene Glycol): Unstable | Stability results ([1]; 0.005% in Ethanol 95-96%): Stable | Stability results ([1]; 0.005% in Ethanol 95-96%, listed as compound A): stable | Stability results ([1]; 0.01% in Benzyl Alcohol): Unstable | Stability results ([1]; 0.03% in Arlasolve DMI (Dimethyl Isosorbide)): Unstable | Stability results ([1]; 0.03% in Hydrolite 5P (Pentylene glycol)): Unstable | Stability results ([1]; 0.03% in Pharmasolve (Methyl Pyrolidone)): Unstable | Stability results ([1]; 0.03% in Transcutol (Ethoxy diglycol)): Unstable | Stability results ([1]; 0.05% in Phenoxetol (Phenoxyethanol)): Stable | Stability results ([1]; 0.05% in Phenoxetol (Phenoxyethanol), listed as compound A): stable | Stability results ([1]; 0.05% in Propylene Glycol, listed as COMPOUND A): Stable | Stability results ([1]; 0.05% in Propylene Glycol, listed as compound A): stable | Stability results ([1]; 0.3% in Dipropylene Glycol Care (Dipropylene Glycol), listed as COMPOUND A): Stable | Stability results ([1]; 0.3% in Dipropylene Glycol Care (Dipropylene Glycol), listed as compound A): stable | Stability results ([1]; 0.3% in PEG 400 (Poly Ethylene Glycol)): Unstable | Recrystallization of COMPOUND A ([2]; formula with ST-Cyclomethicone 5NF 0%): No | Recrystallization of COMPOUND A ([2]; formula with ST-Cyclomethicone 5NF 2%): No | Recrystallization of COMPOUND A ([2]; formula with ST-Cyclomethicone 5NF 5%): Re- | Solubility (in words) ([2]; in ST-cyclomethicone 5NF): nonsolvent | Maximum solubility as % ([3]; in Arlasolve DMI (Dimethyl Isosorbide)): 0.4% | Maximum solubility as % ([3]; in Benzyl Alcohol): 2.3880% | Maximum solubility as % ([3]; in Dipropylene Glycol Care (Dipropylene Glycol)): 0.4% | Maximum solubility as % ([3]; in Ethanol 95-96%): 0.92% | Maximum solubility as % ([3]; in Glycerine (Glycerin)): 0.002% | Maximum solubility as % ([3]; in Hexylene Glycol): 0.4% | Maximum solubility as % ([3]; in Hydrolite 5P (Pentylene glycol)): 0.482% | Maximum solubility as % ([3]; in PEG 400 (Peg-8)): 1.52% | Maximum solubility as % ([3]; in Pharmasolve (Methyl Pyrolidone)): 4.84% | Maximum solubility as % ([3]; in Phenoxetol (Phenoxyethanol)): 1.957% | Maximum solubility as % ([3]; in Propylene Glycol): 0.111% | Maximum solubility as % ([3]; in Transcutol (Ethoxy diglycol)): 4.17% | Solubility (in words) ([3]; in glycerine): virtually insoluble
SMILES: CC(C)(C)c1cc(-c2cc(-c3ccc(C(=O)O)cc3)ccc2OCCO)ccc1N1CCCC1 [Compound A, 3″-tert-butyl-4′-(2-hydroxyethoxy)-4″-pyrrolidin-1-yl[1,1′;3′,1″]terphenyl-4-carboxylic acid]
